Experimental data reported in US20250339569A1, “CARBONIC ANHYDRASE IX LIGANDS” (priority 2021, published 2025).
Starred links: 1 amine or outer side, 2 acyl side, 3 side chain; linkers in the order of their positions; H or OH if unused. Positions of bridges follow the written chain, without caps; N, C: chain ends. Non-standard residues stand in square brackets, D forms with d. Residues, ends and D or L forms follow the SMILES beside them. *: point of attachment. X3 = O=C(O)CN1CCN(CC(=O)O)CCN(CC(=O)NCCCOCCOCCOCCCN*)CCN(CC(=O)O)CC1; Trp(5-Cl) = N[C@@H](Cc1c[nH]c2ccc(Cl)cc12)C(=O)O; mXylylene = c1cc(C[*:1])cc(C[*:2])c1; Bta = N[C@@H](Cc1csc2ccccc12)C(=O)O; Suc = O=C(CCC(=O)[*:2])[*:1]; dPip = O=C(O)[C@H]1CCCCN1; dNMeA = CN[C@H](C)C(=O)O; Sar = CNCC(=O)O

How the values were obtained:
[1] = target: T1, human carbonic anhydrase IX (hCAIX-Fc) (Homo sapiens, UniProt Q16790); experiment: Surface plasmon resonance assay with hCAIX-Fc; type: binding; details: 25° C.; for t1/2 category (activity): SPR dissociation half-life, hCAIX-Fc; for Kd: SPR, hCAIX-Fc captured, read-out: pKD category (activity) (converted)
T1 construct: purchased SinoBliological (Sino Biological) 10107-H02H
Procedure: Surface plasmon resonance (SPR) studies were performed using a Biacore™ T200 SPR system (GE Healthcare Life Sciences). Briefly, polarized light is directed towards a gold-labeled sensor surface, and minimum intensity reflected light is detected. The angle of reflected light changes as molecules bind and dissociate.
Fc-fusion protein of human carbonic anhydrase IX (hCAIX-Fc, SinoBliological, Cat #10107-H02H) was captured on a Fc-capture chip (Biacore™ CM5 sensor chip coated with ˜300 RU of an Fc-binding peptide). Recombinant carbonic anydrase was diluted in Running Buffer (PBST, 0.1% DMSO) to a final concentration 100 or 200 nM and than flushed over the Fc-capture chip to immobilized ˜1000 RUs.
Stock solutions of test compounds were prepared by dissolving each compound in DMSO. DMSO stock solution were diluted 1:1000 in Running Buffer without DMSO. Further sequencial dilutions were made with Running Buffer containing 0.1% DMSO. SPR binding analyses were performed in Single Cycle Kinetic (SCK) mode at 25° C. Flow cell coated with the Fc-binding peptide only served as reference flowcell. After each SCK run, carbonic andydrase IX was removed with 10 mM glycine buffer, pH 1.5.
In between every three SCK measurements, a blank run with Running Buffer instead of test compound was included to correct for baseline drifts (double blanking methods).
Table 11 describes the protocol steps for Fc-fusion target capturing and assessment of the binding kinetics.
For each test compound, SPR raw data in the form of resonance units (RU) were plotted as sensorgrams using the Biacore™ T200 control software. The signal from the blank sensorgram was subtracted from that of the test compound sensorgram (blank corrected). The blank corrected sensorgram was corrected for baseline drift by subtracting the sensorgram of a SCK run without the test compound (running buffer only). The association rate (kon), dissociation rate (koff), dissociation constant (KD), and t1/2 were calculated from Blank-normalized SPR data using the 1:1 Langmuir binding model from the Biacore™ T200 evaluation software. Raw data and fit results were imported as text files in IDBS. The pKD value (negative decadic logarithm of dissociation constant) was calculated in the IDBS excel template.

[2] = target: T2, CAIX-expressing human HT-29 colorectal cancer cells (Homo sapiens, UniProt Q16790); experiment: FACS binding assay (IC50 determination, competition with tracer 3BP-2776 or 3BP-4149); details: FACS competition on HT-29 cells, Tracer ID 3BP-2776 (10 nM, biotin-labeled), 4° C., 1 hour; read-out: pIC50 category (activity) (converted)
T2 construct: CAIX-expressing human HT-29 colorectal cancer cells; host or cells: HT-29 human colorectal cancer cells
How it was run: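 HT-29 cells in FACS buffer (PBS, 1% FCS) at 500.000 cells/ml were exposed to compounds competing with a labelled tracer, with biotinylated compounds detected by 1 μg/mL APC-streptavidin for 30 min on ice. APC/Cy5 median fluorescence was read by flow cytometry and IC50 derived by 4PL fit.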

For `CC(C)C[C@@H]1NC(=O)[C@H](Cc2c[nH]c3ccccc23)NC(=O)[C@H](CC(=O)O)NC(=O)[C@@H](C)NC(=O)[C@H](CCC(=O)O)NC(=O)[C@@H](NC(=O)[C@H](Cc2ccc(O)cc2)NC(=O)[C@@H](NC(=O)CCC(=O)NCCCOCCOCCOCCCNC(=O)CN2CCN(CC(=O)O)CCN(CC(=O)O)CCN(CC(=O)O)CC2)C(C)C)CSCc2cccc(c2)CSC[C@@H](C(N)=O)NC(=O)[C@H](C)NC(=O)[C@H](Cc2c[nH]c3ccccc23)NC(=O)[C@H]([C@@H](C)O)NC1=O` [3BP-3279] ({X3-Suc}-VYCE[dA]DWLTWAC-NH2; linker 3-12 via mXylylene), which “t1/2 category (activity)” value [1] is on record?
Its value is “B (t1/2 between 5.1 and 15.0 minutes)”.

And the Kd [1]?
The Kd was < 10 nM.

What about the IC50 [2] of the same compound?
Its IC50 is < 10 nM.

For `CC(=O)N[C@H](C(=O)N[C@@H](Cc1ccc(O)cc1)C(=O)N[C@H]1CSCc2cccc(c2)CSC[C@@H](C(N)=O)NC(=O)[C@H](C)NC(=O)[C@H](Cc2c[nH]c3ccccc23)NC(=O)[C@H]([C@@H](C)O)NC(=O)[C@H](CC(C)C)NC(=O)[C@H](Cc2c[nH]c3ccccc23)NC(=O)[C@H](CC(=O)O)NC(=O)[C@@H](C)NC(=O)[C@H](CCC(=O)O)NC1=O)C(C)C` [3BP-3280] (Ac-VYCE[dA]DWLTWAC-NH2; linker 3-12 via mXylylene), which “t1/2 category (activity)” value [1] is on record?
Its value is “B (t1/2 between 5.1 and 15.0 minutes)”.

What about the Kd [1] of the same compound?
Its Kd is < 10 nM.

What about the IC50 [2] of the same compound?
The IC50 was < 10 nM.

`CC(=O)N[C@H](C(=O)N[C@@H](Cc1ccc(O)cc1)C(=O)N[C@H]1CSCc2cccc(c2)CSC[C@@H](C(N)=O)NC(=O)[C@H](C)NC(=O)[C@H](Cc2c[nH]c3ccccc23)NC(=O)[C@H]([C@@H](C)O)NC(=O)[C@H](CC(C)C)NC(=O)[C@H](Cc2c[nH]c3ccccc23)NC(=O)[C@H](CC(=O)O)NC(=O)[C@@H](C)N(C)C(=O)[C@H](CCC(=O)O)NC1=O)C(C)C` [3BP-3281] (Ac-VYCE[dNMeA]DWLTWAC-NH2; linker 3-12 via mXylylene) was tested. Which Kd [1] did it give?
Its Kd is < 10 nM.

What about the IC50 [2] of the same compound?
The IC50 was < 10 nM.

`CC(=O)N[C@H](C(=O)N[C@@H](Cc1ccc(O)cc1)C(=O)N[C@H]1CSCc2cccc(c2)CSC[C@@H](C(N)=O)NC(=O)[C@H](C)NC(=O)[C@H](Cc2c[nH]c3ccccc23)NC(=O)[C@H]([C@@H](C)O)NC(=O)[C@H](CC(C)C)NC(=O)[C@H](Cc2c[nH]c3ccccc23)NC(=O)[C@H](CC(=O)O)NC(=O)[C@H]2CCCCN2C(=O)[C@H](CCC(=O)O)NC1=O)C(C)C` [3BP-3283] (Ac-VYCE[dPip]DWLTWAC-NH2; linker 3-12 via mXylylene) was tested. Which Kd [1] did it give?
The Kd was < 10 nM.

What about the IC50 [2] of the same compound?
Its IC50 is < 10 nM.

Which “t1/2 category (activity)” value [1] does the source give for `CC(=O)N[C@H](C(=O)N[C@@H](Cc1ccc(O)cc1)C(=O)N[C@H]1CSCc2cccc(c2)CSC[C@@H](C(N)=O)NC(=O)[C@H](CCC(N)=O)NC(=O)[C@H](Cc2c[nH]c3ccccc23)NC(=O)[C@H]([C@@H](C)O)NC(=O)[C@H](CC(C)C)NC(=O)[C@H](Cc2c[nH]c3ccc(Cl)cc23)NC(=O)[C@H](CC(=O)O)NC(=O)CN(C)C(=O)[C@H](CCC(=O)O)NC1=O)C(C)C` [3BP-3289] (Ac-VYCE[Sar]D[Trp(5-Cl)]LTWQC-NH2; linker 3-12 via mXylylene) here?
The value was “B (t1/2 between 5.1 and 15.0 minutes)”.

What about the Kd [1] of the same compound?
The Kd was < 10 nM.

What about the IC50 [2] of the same compound?
Its IC50 is < 10 nM.

For `CC(=O)N[C@H](C(=O)N[C@@H](Cc1ccc(O)cc1)C(=O)N[C@H]1CSCc2cccc(c2)CSC[C@@H](C(N)=O)NC(=O)[C@H](CCC(N)=O)NC(=O)[C@H](Cc2c[nH]c3ccccc23)NC(=O)[C@H]([C@@H](C)O)NC(=O)[C@H](CC(C)C)NC(=O)[C@H](Cc2csc3ccccc23)NC(=O)[C@H](CC(=O)O)NC(=O)CN(C)C(=O)[C@H](CCC(=O)O)NC1=O)C(C)C` [3BP-3311] (Ac-VYCE[Sar]D[Bta]LTWQC-NH2; linker 3-12 via mXylylene), which “t1/2 category (activity)” value [1] is on record?
Its value is “C (t1/2 between 2.1 and 5.0 minutes)”.

What about the Kd [1] of the same compound?
Its Kd is < 10 nM.

And the IC50 [2]?
Its IC50 is < 10 nM.
